Assay results as given in US11648284B2, “Composition for ameliorating psoriasis symptoms containing extract of Sphallerocarpus gracilis” (KOREA INSTITUTE OF SCIENCE AND TECHNOLOGY, priority 2020, dated 2023).

Experiments:
[1] = system: psoriasis caused by imiquimod; assay: Epithelial thickness of back skin by H&E staining in imiquimod psoriasis animal model; assay type: in vivo, Balb/c mice; details: after treatment for a week, skin application, compared to the IMQ group
From the text: (§1) 6-week-old male Balb/c mice (Kangwon Life Science, Korea) were purchased and acclimated for a week, and psoriasis was induced using 5% imiquimod (Donga ST, Korea). FIG. 1 is a schematic experimental scheme of an animal model. Anti-psoriatic efficacy was investigated using a total of 20 animal models including 5 animals per experimental group.
(§2) In order to determine the effect of the extract of Sphallerocarpus gracilis on psoriasis caused by imiquimod, the experimental animals of Section 2-1 were used. The following four experimental groups were constructed and five animals were randomly assigned to each group:
Normal control without any treatment (Non-treatment control, NTC);
Disease group with psoriasis induced using imiquimod by the method of Section 2-1 (IMQ);
Group to the skin of which dexamethasone was applied every day after induction of psoriasis (Positive control, DEX); and
Group to the skin of which the extract of Sphallerocarpus gracilis of Example 1 was applied (Experimental group, M215) […]
After treatment for a week, the back skin tissue was removed from each animal, and then a paraffin block was prepared. The paraffin block was cut to 5 μm to prepare a slide sample, and then the change in the thickness of the skin tissue was measured through H&E staining.

[2] = system: filaggrin, loricrin, keratin 1 and keratin 14; assay: Immunofluorescence of biomarkers for epithelial tissue damage in back skin of psoriasis animal model; assay type: in vivo, Balb/c mice; details: after treatment for a week, IMQ group decreased compared to non-treatment group
From the text: as §1, §2
The experiment was conducted by inducing psoriasis with IMQ cream and then performing daily application in the amount shown in FIG. 2 to the experimental group and the DEX group. FIG. 3 is an image showing the treatment group for 7 days compared to the psoriasis-induced model as the animal experimental model.
After treatment for a week, back skin tissue was removed from each animal and a paraffin block was then prepared. A paraffin block was cut to 5 μm to prepare a slide sample, and then the change in biomarkers for epithelial tissue damage due to psoriasis was measured through immunofluorescence.

## C[C@@H]1C[C@H]2[C@@H]3CCC4=CC(=O)C=C[C@]4(C)[C@@]3(F)[C@@H](O)C[C@]2(C)[C@@]1(O)C(=O)CO [DEX, dexamethasone]
[1]
  thickness of the epithelial layer: decreased thickness
[2]
  expression level of filaggrin: increased
  expression level of keratin 1: increased
  expression level of keratin 14: increased
  expression level of loricrin: increased
